For this assay, the system named is PMA-differentiated THP-1 cells. Put plainly: IL-1β production in PMA-differentiated THP-1 cells stimulated with gramicidin (hTHP-1 assay containing 2% fetal bovine serum; Procedures 1 and 2). Format: cell-based, human. Conditions: 2% fetal bovine serum. An outline of the steps: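 IL-1β release from PMA-differentiated THP-1 macrophage-like cells was triggered by 5 μM gramicidin for 2 h after 1 h compound exposure, then measured by HTRF.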

Setting [1] is: Homo sapiens, THP-1, Table B1, class symbols, read-out: Average IC50 of compounds in hTHP-1 assay: hTHP-1 IC50.
Where [2] appears, read: Homo sapiens, THP-1, Table B2, class symbols, read-out: hTHP-1 IC50.
Where [3] appears, read: Homo sapiens, THP-1, Table B3, hTHP-1 assay, class symbols, read-out: IC50.
Where [4] appears, read: Table B2, class symbols, read-out: hTHP-1 IC50.
Where [5] appears, read: Homo sapiens, THP-1, Table B4, class symbols, read-out: hTHP-1 IC50.

Molecules are shown by their SMILES. Like-named read-outs stand apart in the source and are kept apart here.

In the case of `CC1CCc2c1nc1c(c2NC(=O)N=S(N)(=O)c2ccc(CN(C)C)cc2)CCC1` (single isomer, unassigned) [Compound 134ba, (R,R) or (R,S)-4-((dimethyl-amino)methyl)-N′-((3-methyl-1,2,3,5,6,7-hexa-hydrodicyclo-penta[b,e]pyridin-8-yl)carbamoyl)benzene-sulfonimidamide], under setting [1], the IC50 – broadly, the midpoint of a concentration-inhibition curve – was 1000 to 5000 nM.

In the case of `CC(C)c1nc2c(cc1NC(=O)N=[S@@](N)(=O)c1cnc(C(C)(C)O)s1)CCC2` [Compound 601b], the IC50 under setting [2] lay within 5000 to 30000 nM.

Take `CCc1c(CC(F)(F)F)nc2c(c1NC(=O)N=S(N)(=O)c1sc(C(C)(C)O)cc1F)CCC2` (stereo not drawn) [Example 594, N′-((3-ethyl-2-(2,2,2-trifluoroethyl)-6,7-dihydro-5H-cyclopenta[b]pyridin-4-yl)carbamoyl)-3-fluoro-5-(2-hydroxypropan-2-yl)thiophene-2-sulfonimidamide]: under setting [3], the IC50 was 1000 to 5000 nM.

For `CC(O)c1csc([S@@](N)(=O)=NC(=O)Nc2c3c(nc4c2CC[C@H]4C)CCC3)c1` (stereo partly drawn) [compound 583, (S)-4-(1-hydroxyethyl)-N′-(((R)-3-methyl-1,2,3,5,6,7-hexahydrodicyclopenta[b,e]pyridin-8-yl)carbamoyl)thiophene-2-sulfonimidamide], under setting [3], the IC50 was in the range of 1000 to 5000 nM.

`C[C@@H]1CCc2c1nc1c(c2NC(=O)N=S(N)(=O)c2sc(CN(C)C)cc2F)CCC1` (single isomer, unassigned) [Compound 636b, (R) or (S)-5-((Dimethylamino)methyl)-3-fluoro-N′-(((R)-3-methyl-1,2,3,5,6,7-hexahydrodicyclopenta [b,e]pyridin-8-yl)carbamoyl) thiophene-2-sulfonimidamide]: the IC50 under setting [4] fell in the range of 40 to 200 nM.

Regarding `CC(C)(O)c1csc(S(N)(=O)=NC(=O)Nc2c3c(nc4c2CCC4)CCC3)c1` (single isomer, unassigned) [Compound 155b, (S) or (R)-N′-((1,2,3,5,6,7-hexahydrodicyclo-penta[b,e]pyridin-8-yl)carbamoyl)-4-(2-hydroxypropan-2-yl)thiophene-2-sulfonimidamide], the IC50 (Table B1, class symbols, read-out: Average IC50 of compounds in hTHP-1 assay: hTHP-1 IC50) lay within 1000 to 5000 nM.

In the case of `CCc1cc(NC(=O)N=S(N)(=O)c2cnc(C(C)(C)O)s2)c2c(n1)CCC2` (single isomer, unassigned) [Compound 137a, (R) or (S)-N′-((2-ethyl-6,7-dihydro-5H-cyclopenta[b]pyridin-4-yl)carbamoyl)-2-(2-hydroxypropan-2-yl)thiazole-5-sulfonimidamide], under “Table B1, numeric bounds, read-out: Average IC50 of compounds in hTHP-1 assay: hTHP-1 IC50”, the IC50 was more than 10000 nM.

`CCn1ccc([S@](N)(=O)=NC(=O)Nc2c(C)c(C(F)(F)F)nc3c2CCC3)n1` [Compound 731b]: the IC50 under setting [2] lay in the range of 200 to 1000 nM.

As to `Cc1c(C2CC2)nc2c(c1NC(=O)N=S(N)(=O)c1cnn3c1OCCC3)CCC2` (single isomer, unassigned) [Compound 306b, (R) or (S)-N′-((2-cyclopropyl-3-methyl-6,7-dihydro-5H-cyclopenta[b]pyridin-4-yl)carbamoyl)-6,7-dihydro-5H-pyrazolo[5,1-b][1,3] oxazine-3-sulfonimidamide], under setting [2], the IC50 lay within 5000 to 30000 nM.

For the compound `C[C@@H]1CCc2c1nc1c(c2NC(=O)N=[S@@](N)(=O)c2ccn(CF)n2)CCC1` [Example 573, (R)-1-(fluoromethyl)-N′—(((R)-3-methyl-1,2,3,5,6,7-hexahydrodicyclopenta[b,e]pyridin-8-yl)carbamoyl)-1H-pyrazole-3-sulfonimidamide], under setting [3], the IC50 lay within 1000 to 5000 nM.

As for `Cc1c(C(F)(F)F)nc2c(c1NC(=O)N=S(N)(=O)c1nn(C(C)C)cc1F)CCC2` (stereo not drawn) [Example 734, 4-Fluoro-1-isopropyl-N′-((3-methyl-2-(trifluoromethyl)-6,7-dihydro-5H-cyclopenta[b]pyridin-4-yl)carbamoyl)-1H-pyrazole-3-sulfonimidamide], under setting [5], the IC50 was in the range of 200 to 1000 nM.

Regarding `CC(C)(O)c1sc(S(N)(=O)=NC(=O)Nc2c3c(nc4c2CCC4)CCC3)cc1F` (single isomer, unassigned) [Compound 678a, (R) or (S)-4-Fluoro-N′-((1,2,3,5,6,7-hexahydrodicyclopenta [b,e]pyridin-8-yl)carbamoyl)-5-(2-hydroxypropan-2-yl)thiophene-2-sulfonimidamide], the concentration for half-maximal inhibition (IC50) under setting [2] fell in the range of 1000 to 5000 nM.

Turning to `CCc1c(C2CC2)nc2c(c1NC(=O)N=S(N)(=O)c1cc(C(C)(C)O)cs1)CCC2` (single isomer, unassigned) [Compound 181b, (R) or (S)-N′((2-cyclopropyl-3-ethyl-6,7-dihydro-5H-cyclopenta[b]pyridin-4-yl)carbamoyl)-4-(2-hydroxypropan-2-yl)thiophene-2-sulfonimidamide], the IC50 under setting [4] was 40 to 200 nM.

Take `CC(C)(O)c1ncc(S(N)(=O)=NC(=O)Nc2c3c(nc4c2CCC4)CCCC3)s1` (stereo not drawn) [Compound 161, N′-((2,3,5,6,7,8-hexahydro-1H-cyclopenta[b]quinolin-9-yl)carbamoyl)-2-(2-hydroxypropan-2-yl)thiazole-5-sulfonimidamide]: under setting [1], the 50% inhibitory concentration (IC50) lay in the range of 1000 to 5000 nM.

With `COC(C)(C)c1ncc(S(N)(=O)=NC(=O)Nc2c3c(nc4c2CCC4)CCC3)s1` (stereo not drawn) [Compound 693, N′-((1,2,3,5,6,7-hexahydrodicyclopenta[b,e]pyridin-8-yl)carbamoyl)-2-(2-methoxypropan-2-yl)thiazole-5-sulfonimidamide], the IC50 under setting [2] was in the range of 1000 to 5000 nM.

As for `CC(C)(O)c1sc(S(N)(=O)=NC(=O)Nc2c3c(nc4c2CCC4(C)C)CCC3)nc1CO` (single isomer, unassigned) [Compound 642a, (S) or (R)-N′-((3,3-dimethyl-1,2,3,5,6,7-hexahydrodicyclopenta [b,e]pyridin-8-yl)carbamoyl)-4-(hydroxymethyl)-5-(2-hydroxypropan-2-yl)thiazole-2-sulfonimidamide], the IC50 under setting [4] lay in the range of 5000 to 30000 nM.

As for `CN(C)Cc1ccc(S(N)(=O)=NC(=O)Nc2c3c(nc4c2CCC4(C)C)CCC3)cc1` (stereo not drawn) [Compound 125, N′-((3,3-dimethyl-1,2,3,5,6,7-hexahydrodicyclopenta[b,e]pyridin-8-yl)carbamoyl)-4-((dimethylamino)methyl)benzenesulfonimidamide], the IC50 under setting [1] is 1000 to 5000 nM.

Turning to `NS(=O)(=NC(=O)Nc1c2c(nc(C(F)(F)F)c1C1CC1)CCC2)c1nn(C(F)F)cc1F` (stereo not drawn) [Example 615, N′-((3-cyclopropyl-2-(trifluoromethyl)-6,7-dihydro-5H-cyclopenta[b]pyridin-4-yl)carbamoyl)-1-(difluoromethyl)-4-fluoro-1H-pyrazole-3-sulfonimidamide], the IC50 (Table B3, hTHP-1 assay, class symbols, read-out: IC50) lay in the range of 200 to 1000 nM.

On to `CCc1ccsc1S(N)(=O)=NC(=O)Nc1c2c(nc3c1CC[C@H]3C)CCC2` (stereo partly drawn) [Compound 725a], for which the IC50 under setting [2] lay in the range of 1000 to 5000 nM.

In the case of `CCn1cc(F)c(S(N)(=O)=NC(=O)Nc2c(-c3ccccc3)cnc3c2CCC3)n1` (stereo not drawn) [Example 745, 1-Ethyl-4-fluoro-N′-((3-phenyl-6,7-dihydro-5H-cyclopenta[b]pyridin-4-yl)carbamoyl)-1H-pyrazole-3-sulfonimidamide], the half-inhibitory concentration (IC50) under setting [5] was in the range of 1000 to 5000 nM.

With `CC1CCc2c1nc1c(c2NC(=O)N=S(N)(=O)c2cnn(C(C)C)c2)CCC1` (single isomer, unassigned) [Compound 171b, (R, S) and (R, R) or (S, R) and (S, S)-1-Isopropyl-N′-((3-methyl-1,2,3,5,6,7-hexahydrodicyclopenta [b,e]pyridin-8-yl)carbamoyl)-1H-pyrazole-4-sulfonimidamide], under setting [4], the IC50 lay in the range of 5000 to 30000 nM.
